Test results taken from US12655141B2, “Inhibitors of notch signaling pathway and use thereof in treatment of cancers” (Cellestia Biotech AG, priority 2019, dated 2026).

Assays:
NOTCH pathway = assay: Western blot, downregulation of NOTCH pathway (N1-ICD and cMYC), FIG. 2 and 3; assay type: cell-based, human; conditions: RPMI8402, 1 μM, 24 hours
Procedure: NOTCH positive human leukemic RPMI8402 cells were treated with 1 μM of 6-(4-tert-butylphenoxy)pyridin-3-amine and 6-([1,1′-Biphenyl]-4-yloxy)-N-methylpyridin-3-amine for 24 hours. Following treatment, total protein lysates were extracted and protein expression analysed by western blot.
NOTCH positive human leukemic RPMI8402 cells were treated with 1 μM of 6-(4-tert-butylphenoxy)pyridin-3-amine and 6-((4′-Fluoro-[1,1′-biphenyl]-4-yl)oxy)pyridin-3-amine, 6-([1,1′-Biphenyl]-4-yloxy)-4-methylpyridin-3-amine, 6-([1,1′-Biphenyl]-4-yloxy)-2-methylpyridin-3-amine and N-Methyl-6-((6-phenylpyridin-3-yl)oxy)pyridin-3-amine for 24 hours. Following treatment, total protein lysates were extracted and protein expression analysed by western blot.
(§1) One million human NOTCH positive T-ALL cell line RPMI8402 were treated with NOTCH targeting compounds at 1 μM concentration for 24 hours. Following treatment cells were harvested and washed with 1×PBS. Total RNA and total protein lysates were extracted as described below.
(§2) Cells were lysed in RIPA buffer (50 mM Tris·Cl, pH 7.5, 150 mM NaCl, 1% nonidet P-40, 0.5% sodium deoxycholate and 0.1% SDS) for 30 minutes at 4° C. Lysed cells were centrifuged to remove the debris at 14000 rpm at 4° C. Supernatant was transferred to a new eppendorf tube. The protein concentration was determined by Bradford assay using spectrophotometer (Ultrospec 3000 pro).
(§3) Initially for western blotting, 40 μg of protein were denatured in 1×SDS gel loading buffer (100 mM Tris·Cl, pH 6.8, 200 mM DTT, 4% SDS, 0.2% bromophenol, 20% glycerol) by heating at 99° C. for 5 minutes. Denatured protein samples were stored on ice until loading on to the acrylamide gel. The samples were run on 8% or 10% acrylamide gel in Tris-glycine electrophoresis buffer (25 mM Tris, 250 mM glycine, 0.1% SDS). Following separation on the acrylamide gel, protein samples were transferred on to PVDF membrane (PEQ lab, catalog number 39-3010) using transfer buffer (39 mM glycine, 48 mM Tris base, 0.037% SDS and 20% methanol).
(§4) For immunoblotting, membranes were blocked with 5% milk and incubated overnight with primary antibodies at 4° C. Membrane were washed with 1×TBST (1×TBS+0.5 tween 20) for 5 minutes (3 times) and incubated with HRP-conjugated secondary antibodies for one hour at room temperature. Signal was detected with Super Signal West chemiluminescent substrate (Thermo Scientific, catalog number 34077).

cMYC = assay: Western blot of RPMI8402 protein lysates: cMYC; assay type: cell-based, human; conditions: NOTCH positive leukemic cells, 1 μM, 24 hours, FIGS. 2 and 3
Procedure: as §1, §2, §3, §4
(§5) Total protein lysates were analysed by western blot analysis using N1-ICD (cleaved and active NOTCH1 Intracellular Domain), cMYC and ACTIN specific antibodies.

[1] = tested on: N1-ICD (cleaved and active NOTCH1 Intracellular Domain); assay: Western blot of RPMI8402 protein lysates: N1-ICD; assay type: cell-based, human; conditions: NOTCH positive leukemic cells, 1 μM, 24 hours, FIGS. 2 and 3
Procedure: as §1, §2, §3, §4, §5

[2] = tested on: NOTCH positive/driven human T cell acute lymphoblastic leukemia cell line RPMI 8402; assay: Alamar blue anti-proliferative assay; assay type: cell-based; conditions: Homo sapiens, RPMI 8402, RPMI8402, 72 hours, concentration range 0.01-10 μM
Procedure: Alamarblue® and PrestoBlue proliferation assays were performed to determine the growth kinetics of Notch inhibitor treated cells. Alamar Blue® and PrestoBlue consists of a cell permeable substrate resazurin. In metabolically active and proliferating cells, resazurin is converted to resorufin due to an intrinsic reducing power of live cells and produces a red fluorescence. Therefore production of resorufin serves as an indicator of the viability of the cell population.
Proliferation assays were performed by seeding 5000 cells/well in a 96 well plate. Cells were treated with DMSO or compounds for 72 hours using concentration ranges of 0.01-10 μM. Each concentration was tested in 4 replicates. To determine the growth kinetics, 10 μl of Alamar Blue® or PrestoBlue (Invitrogen) was added to each well and incubated for 4 hours. Readout was taken using Tecan F500 (Tecan) multiplate reader or Varioskan LUX (ThermoFisher) multiplate reader.
In order to determine anti-cancer potency of compounds compared to 6-(4-tert-butylphenoxy)pyridin-3-amine (described in WO2013/093885), NOTCH positive/driven human T cell acute lymphoblastic leukemia cell line RPMI 8402 was treated with selected compounds.

IC50 [2] [nM]	SMILES	potency in downregulating NOTCH pathway compared with 6-(4-tert-butylphenoxy)pyridin-3-amine (NOTCH pathway)	downregulation of cMYC compared to 6-(4-tert-butylphenoxy)pyridin-3-amine (cMYC)	downregulation of N1-ICD compared to 6-(4-tert-butylphenoxy)pyridin-3-amine [1]
110	Cc1cc(Oc2ccc(-c3ccccc3)cc2)ncc1N [Example 9, 6-([1,1′-Biphenyl]-4-yloxy)-4-methylpyridin-3-amine]	enhanced potency	stronger downregulation	stronger downregulation
83	Nc1ccc(Oc2ccc(-c3ccc(F)cc3)cc2)nc1 [Example 10, 6-((4′-Fluoro-[1,1′-biphenyl]-4-yl)oxy)pyridin-3-amine]	enhanced potency	stronger downregulation	stronger downregulation
500	CNc1ccc(Oc2ccc(-c3ccccc3)nc2)nc1 [Example 23, N-Methyl-6-((6-phenylpyridin-3-yl)oxy)pyridin-3-amine]	enhanced potency	stronger downregulation	stronger downregulation
